Entries after “also recorded” stand apart in the source; their conditions may differ.
Experiments:
[1] = test system: MDA-MB-231 human breast cancer cells; test: Matrigel invasion assay, MDA-MB-231 cells; assay type: cell-based; conditions: FIG. 7
Procedure: Several peptides were tested for anti-invasive capacity in a Matrigel® invasion assay system as indicated above (Kleinman et al., supra; Parish et al., supra). Several invasive human tumor lines (PC-3, MDA-MB-231) and non-human tumors (3LL, Mat B-III) were examined. The rat breast cancer line Mat B III and the human prostate cancer line PC-3 were initially used.
Tumor cells (5×10^5/mL, in a volume of 200 μL) in serum-free RPMI 1640 medium were added to a disposable transwell invasion chamber coated with Matrigel® (Becton Dickinson, Lincoln Park, N.J.). The invasion chambers were placed in 24-well tissue culture plates filled with serum-free RPMI-1640 and the plates were placed in an atmosphere of 5% CO2 in humidified air at 37° C. for 48-72 hours. The chambers were then removed, inverted, and the cells which had invaded (and now appeared on the bottom face of the invasion chamber) were fixed and stained using Diff-Quick® (Scientific Products). Cells were counted in 10 different fields on each filter and an average obtained.

[2] = test system: matrix metalloproteinases MMP2 and MMP9; test: EnzCheck gelatinase assay (MMP activity); assay type: biochemical; conditions: concentrations up to 100 μM; HT1080 supernatant activated with phenylmercuric acetate
Procedure: HT1080 cells were grown in the presence of dexamethasone for 24 hrs and the supernatant collected and treated with phenylmercuric acetate to activate proMMPs.

HeLa = test: In vitro proliferation, HeLa cells; assay type: cell-based
Procedure: (§1) Å6 was also tested for its ability to inhibit the proliferation of cells other than endothelial cells in vitro.

[3] = test system: SMC (aortic smooth muscle cells); test: In vitro proliferation, SMC; assay type: cell-based
Procedure: as §1

uPA = uPA (Homo sapiens, UniProt P00749); test: uPA activity / activation of plasminogen; assay type: biochemical
scuPA-suPAR = scuPA-suPAR (Homo sapiens, UniProt P00749); test: Activation of plasminogen by scuPA-suPAR with small chromogenic substrates; assay type: biochemical
Mat B-III tumors [4] = test: Rat syngeneic Mat B-III breast cancer model; assay type: in vivo
Procedure: The effects of the compounds are tested on tumor progression in a rat syngeneic model of breast cancer (Xing and Rabbani, 1996). Mat BIII rat breast tumor cells (1×10^6 cells in PBS, 0.1 mL per rat) are inoculated into the mammary fat pads of female Fisher rats. The test compound is dissolved in PBS (200 mM stock), sterile filtered and dispensed in vivo at a dose of up to about 100 mg/kg/day) using a 14-day Alza osmotic mini-pump implanted intraperitoneally at the time of inoculation. Control animals receive vehicle (PBS) alone. Animals are euthanized at day 14 and examined for metastasis in the spleen, lungs, liver, kidney and lymph nodes. In addition, the primary tumors are excised, quantitated, and prepared for immunohistochemistry.
The rat syngeneic breast cancer system (Xing and Rabbani, 1996) employs Mat BIIIrat breast cancer cells. When Mat B-III cells (1×10^6 cells) are inoculated into the mammary fat pad of female Fisher rats, they form large tumors which metastasize to regional lymph nodes (LNs) and other distal sites within 14-20 days.
Å6 was initially delivered prophylactically (infusion starting on the day of tumor inoculation) using an Alzet mini-pump that delivered 75 mg/kg/day. […] Metastasis was quantitated by counting the number of macroscopic foci without regard for their size.
Estrogen receptor-positive Mat B-III tumors were used to test combination treatment with Å6 (75 mg/kg/day) and TAM (3 mg/kg/day). In contrast to previous studies, the Mat B-III tumors (inoculated in the mammary fat pad) were staged to 40-50 mm^3 prior to the initiation of treatment. Treatment was continued for 8 days during which time primary tumor growth was measured using calipers (FIG. 14).

[5] = test system: MDA-MB-231 human breast cancer cells; test: MDA-MB-231 GFP xenograft model; assay type: in vivo, mice
Procedure: Nude mice (n=5 per group) were challenged with 2×10^5 tumor cells co-injected into the mammary fat pad of the mice with Matrigel. […] Control animals received vehicle (PBS) only.
These cells were first transfected with green fluorescent protein (GFP) to simplify the detection and visualization of metastases.
The tumor cells (5×10^5) were suspended in 0.1 mL of Matrigel and injected into the mammary fat pad of female BALB/c nu/nu mice. Treatment (75 mg/kg/day) was initiated when the tumors were palpable (10 mm^3, approximately 4 weeks after inoculation of tumor cells) and continued for 5 weeks. Tumor volumes were determined twice per week using caliper measurements. The animals were euthanized at the end of the 5th week of treatment, necropsied and examined for macroscopic metastases. Sections prepared from LNs, lung, liver, spleen and kidney were analyzed for microscopic dissemination of tumor cells using fluorescence microscopy to detect GFP-positive foci.
Macroscopic metastases were enumerated and their size measured with calipers (Table I below). Microscopic dissemination of tumor cells was quantitated by counting GFP-positive foci in representative sections from lung, liver, kidney and spleen.
Macrometastases were determined by excising involved LNs and determining the tumor volume by caliper measurement. Microscopic tumor foci were quantitated by sectioning and fixing target organs, then visualizing GFP-labeled cells using fluorescence microscopy (at 200× enlargement). The number of disseminated tumor foci represents the average of 5 fields per section from 3 different sections per organ.

Acute toxicity in mice = assay type: in vivo; conditions: observed for 3 days
Procedure: Acute toxicity was evaluated at three different doses of Å6 (1500 mg/kg, 500 mg/kg and 250 mg/kg). Mice (n=6) were infused (i.v,) with a bolus of Å6 over 5-10 minutes and observed for 3 days.

Mat B-III tumors [6] = test: Rat syngeneic Mat B-III breast cancer model; assay type: in vivo; conditions: 75 mg/kg/day IP b.i.d.
[7] = Alzet mini-pump 75 mg/kg/day from the day of tumor inoculation
[8] = comparative analysis of related peptides
[9] = average of 5 fields per section from 3 sections

## Ac-KPSSPPEE-NH2 [Å6, CH3CO-Lys-Pro-Ser-Ser-Pro-Pro-Glu-Glu-NH2]
[1]
  invasion of MDA-MB-231 cells through Matrigel: inhibits the invasion
[2]
  inhibition of gelatinase activity: did not inhibit
HeLa
  anti-proliferative effect, HeLa: No anti-proliferative effects
[3]
  anti-proliferative effect, SMC: No anti-proliferative effects
uPA
  effect on the activity of uPA directly: did not affect
  inhibition of the activation of plasminogen: no effect
scuPA-suPAR
  effect on activation of plasminogen by scuPA-suPAR: did not affect
Mat B-III tumors [4]; [7]
  LN metastasis: inhibition
  tumor growth: inhibition
Mat B-III tumors [4]; [8]
  number of metastases in the spleen, lungs, liver, kidney and lymph nodes: significant reduction
  size of the primary tumor: significant reduction
Mat B-III tumors [4]; histological analysis, Å6-treated rats
  necrosis of the primary tumor periphery: 50-75%
Mat B-III tumors [4]; tumor sections
  decrease in Factor VIII-positive foci: 40-60%
Mat B-III tumors [4]; Å6-treated groups
  TUNEL assay for apoptosis of tumor cells: stained positive
[5]; IP, 1 mg bid, started when tumor nodules palpable (FIG. 15)
  growth of primary challenge tumors: inhibits the growth
[5]; [9]
  Disseminated GFP-positive Tumor Foci, Liver: 3.11 ± 0.14
  Disseminated GFP-positive Tumor Foci, Lung: 2.09 ± 0.30
  Disseminated GFP-positive Tumor Foci, Spleen: 28.30 ± 2.80
[5]; end of 5th week of treatment
  Macroscopic Metastases, Lungs, Number: 1 ± 0
  Macroscopic Metastases, Lymph Nodes, Number: 1.2 ± 0.2
  Macroscopic Metastases, Lymph Nodes, Size: 7 ± 3 mm^3
[5]; liver and lungs
  single foci versus larger colonies in organ sections: greater number of single foci
[5]; mouse, in vivo
  Factor VIII-positive hot spots in tumor sections: decrease
  TUNEL-positive foci in tumor sections: significant increase
Acute toxicity in mice; 1500, 500 and 250 mg/kg i.v. bolus over 5-10 minutes
  overt toxicity: No evidence for overt toxicity
Acute toxicity in mice; 1500, 500 and 250 mg/kg i.v. bolus
  survival after acute dosing: all the animals survived
other
  solubility: > 100 mg/mL
Mat B-III tumors [6]
  macroscopic metastasis (number of macroscopic foci): continued to be suppressed; also recorded: inhibited
  tumor growth (volume of primary tumor): inhibits

— patent publication US8110543B2, “Anti-invasive and anti-angiogenic compositions” (Angstrom Pharmaceuticals, Inc., priority 1997, dated 2012)
